Results: patent US5028609A, “Alkyl diamine derivatives” (Alkaloida Vegyeszeti Gyar, priority 1983, dated 1991)

Key:
[1] = system: aconitine arrhythmia on rats; test: preventive aconitine arrhythmia test on rats; assay type: in vivo, rats of Wistar strain; conditions: for arrhythmia appearance time: ± S.E., 30 min monitoring; for responders at 4 mg/kg: read-out: positive cases, 4.0 mg/kg i.v., 2 min before aconitine
Experimental: The antiarrhythmic activity of the compounds of the Formula I was compared in a preventive aconitine arrhythmia test on rats as follows:
rats of Wistar strain weighing 200 to 250 g. were narcotized i.p. with 1.25 g./kg. of urethane and their ECG was registered by a Hellige equipment by II standard limb head.
Arrhythmia was induced by an i.v. infusion of 30 /ug/kg. aconitine nitrate whereafter the ECG was continuously monitored for 30 minutes.
Those cases were considered positive, where within 30 minutes after the aconitine infusion not a single phase of the arrhythmia occurred.
In control animals pretreated i.v. with a 0.9% sodium chloride solution (0.1 ml./100 g.) (n=20) the arrhythmogenic activity of the aconitine nitrate appeared after 2.88±0.32 minutes.
Per cent values of the positive cases, average time of the appearance of the arrhythmia-when the induced arrhythmia appeared within 30 minutes and toxicity values are shown.

arrhythmia in rats = test: arrhythmia test carried out in rats according to Zetler and Strubelt (ED125, ED150); assay type: in vivo; conditions: Rattus norvegicus, iv
Experimental: In cases of compounds having outstanding antiarrhythmic activity ED125 and ED150 values were calculated in arrhythmia test carried out in rats according to Zetler and Strubelt (Arzneim.-Forsch.) Drug.

white mice = test: acute intravenous toxicity, method of Litchfield and Wilcoxon; assay type: in vivo; conditions: i.v.
Experimental: (§1) The acute intravenous (i.v.) toxicity values of the testcompounds was determined by the method of Litchfield and Wilcoxon and as test-animals white mice of both sexes were used (J. of Pharmacol. 1949, 96, 99.).

[2] = as above; assay type: in vivo; conditions: mouse, in vivo, iv, mice
Experimental: as §1

[3] = Rattus norvegicus, iv, 0.5 h, no arrhythmia within 30 min = positive

Compound | ED125 (arrhythmia in rats) | ED150 (arrhythmia in rats) | LD50 (white mice) | arrhythmia appearance time ([1]; 4.0 mg/kg i.v.) | responders at 4 mg/kg [1, 3] | other results
COc1cc(C(=O)NCCCNC(=O)C2=CC(C)(C)NC2(C)C)cc(OC)c1OC [I/2] | 7.6 mg/kg | 12.3 mg/kg | 119 mg/kg |  |  | arrhythmia appearance time ([1]; 12.0 mg/kg i.v.): 16.7 ± 1.7 min; responders at 12 mg/kg ([1]; Rattus norvegicus, iv, 0.5 h, read-out: positive cases, 12.0 mg/kg i.v., 2 min before aconitine, no arrhythmia within 30 min = positive): 70%
CC=Cc1ccc(OCC(=O)NCCCNC(=O)C2=CC(C)(C)NC2(C)C)c(OC)c1 [I/8] | 1.5 mg/kg | 2.2 mg/kg |  |  |  | arrhythmia appearance time ([1]; 3.0 mg/kg i.v.): > 30 min; responders at 3 mg/kg ([1]; Rattus norvegicus, iv, 0.5 h, read-out: positive cases, 3.0 mg/kg i.v., 2 min before aconitine, no arrhythmia within 30 min = positive): 100%; LD50 [2]: 30 mg/kg
C=CCc1ccc(OCC(=O)NCCCNC(=O)C2=CC(C)(C)NC2(C)C)c(OC)c1 [I/9, N-(2-methoxy-4-allyl)-phenoxy-acetyl-N'-(2,2,5,5-tetramethyl-3-pyrroline-3-carbonyl)-1,3-propylene-diamine] | 0.7 mg/kg | 1.4 mg/kg | 19 mg/kg |  |  | arrhythmia appearance time ([1]; 1.9 mg/kg i.v.): > 30 min; responders at 1.9 mg/kg ([1]; Rattus norvegicus, iv, 0.5 h, read-out: positive cases, 1.9 mg/kg i.v., 2 min before aconitine, no arrhythmia within 30 min = positive): 100%
C=CCc1cc(C)ccc1OCC(=O)NCCCNC(=O)C1=CC(C)(C)NC1(C)C [I/11] | 1.4 mg/kg | 2.4 mg/kg | 14 mg/kg |  |  | arrhythmia appearance time ([1]; 1.4 mg/kg i.v.): 20.1 ± 2.5 min; responders at 1.4 mg/kg ([1]; Rattus norvegicus, iv, 0.5 h, read-out: positive cases, 1.4 mg/kg i.v., 2 min before aconitine, no arrhythmia within 30 min = positive): 80%
CC1(C)C=C(C(=O)NCCCNC(=O)CSc2ccccc2)C(C)(C)N1 [I/12] | 4.6 mg/kg | 6.95 mg/kg | 38 mg/kg | 28.5 min | 90% | 
CC1(C)C=C(C(=O)NCCCNC(=O)Cc2cccs2)C(C)(C)N1 [I/19] | 2 mg/kg | 3.1 mg/kg | 71 mg/kg |  |  | arrhythmia appearance time ([1]; 7.0 mg/kg i.v.): 27.5 ± 2.5 min; responders at 7 mg/kg ([1]; Rattus norvegicus, iv, 0.5 h, read-out: positive cases, 7.0 mg/kg i.v., 2 min before aconitine, no arrhythmia within 30 min = positive): 80%
CC=Cc1ccc(OCC(=O)NCCNC(=O)C2=CC(C)(C)NC2(C)C)c(OC)c1 [I/21] | 2.4 mg/kg | 4.1 mg/kg |  | > 30 min | 100% | LD50 [2]: 18 mg/kg
CC1(C)C=C(C(=O)NCCCNCc2ccccc2)C(C)(C)N1 [I/38] | 2.2 mg/kg | 3.6 mg/kg | 26 mg/kg | 27.5 min | 90% | 
CC1(C)C=C(C(=O)NCCCNCc2cccs2)C(C)(C)N1 [I/44] |  |  |  |  |  | responders at 6.5 mg/kg ([1]; Rattus norvegicus, iv, 0.5 h, read-out: positive cases, 6.5 mg/kg i.v., 2 min before aconitine, no arrhythmia within 30 min = positive): 100%
CC1(C)C=C(C(=O)NCCCCNCc2cccs2)C(C)(C)N1 [I/49] | 2.3 mg/kg | 4.7 mg/kg | 28 mg/kg |  |  | arrhythmia appearance time ([1]; 2.8 mg/kg i.v.): 10.0 min; responders at 2.8 mg/kg ([1]; Rattus norvegicus, iv, 0.5 h, read-out: positive cases, 2.8 mg/kg i.v., 2 min before aconitine, no arrhythmia within 30 min = positive): 90%
CC1(C)CC(C(=O)NCCCNCc2cccs2)C(C)(C)N1 (stereo not shown) [I/50] | 2.7 mg/kg | 4.2 mg/kg | 43 mg/kg |  |  | arrhythmia appearance time ([1]; 4.3 mg/kg i.v.): 30 min; responders at 4.3 mg/kg ([1]; Rattus norvegicus, iv, 0.5 h, read-out: positive cases, 4.3 mg/kg i.v., 2 min before aconitine, no arrhythmia within 30 min = positive): 100%
CC1(C)CC(C(=O)NCCCNCc2ccc(C(F)(F)F)cc2)C(C)(C)N1 (stereo not shown) [I/52] | 2.1 mg/kg | 2.9 mg/kg | 39 mg/kg | 7.3 min | 90% | 
CC1(C)C=C(C(=O)NCCCNCc2ccsc2)C(C)(C)N1 [I/53] | 3.4 mg/kg | 5.5 mg/kg | 28 mg/kg | 30 min | 100% | 
CC1(C)CC(C(=O)NCCCNCc2ccsc2)C(C)(C)N1 (stereo not shown) [I/54] | 6.9 mg/kg | 13.2 mg/kg | 19 mg/kg | 5.2 ± 0.8 min | 70% | 
CC1(C)C=C(C(=O)NCCCN2C(=O)C3CC=CCC3C2=O)C(C)(C)N1 (stereo not shown) [I/58] |  |  | 113 mg/kg |  |  | arrhythmia appearance time ([1]; 11.3 mg/kg i.v.): 13.1 ± 2.5 min; responders at 11.3 mg/kg ([1]; Rattus norvegicus, iv, 0.5 h, read-out: positive cases, 11.3 mg/kg i.v., 2 min before aconitine, no arrhythmia within 30 min = positive): 50%
CC1(C)C=C(C(=O)NCCN2C(=O)c3ccccc3C2=O)C(C)(C)N1 [I/59] | 4.2 mg/kg | 7.9 mg/kg | 55 mg/kg |  |  | arrhythmia appearance time ([1]; 5.5 mg/kg i.v.): 30 min; responders at 5.5 mg/kg ([1]; Rattus norvegicus, iv, 0.5 h, read-out: positive cases, 5.5 mg/kg i.v., 2 min before aconitine, no arrhythmia within 30 min = positive): 100%
CC1(C)C=C(C(=O)NCCCN2C(=O)c3ccccc3C2=O)C(C)(C)N1 [I/60] | 1.4 mg/kg | 2.6 mg/kg | 23 mg/kg |  |  | arrhythmia appearance time ([1]; 2.3 mg/kg i.v.): 26.0 min; responders at 2.3 mg/kg ([1]; Rattus norvegicus, iv, 0.5 h, read-out: positive cases, 2.3 mg/kg i.v., 2 min before aconitine, no arrhythmia within 30 min = positive): 90%
CC1(C)C=C(C(=O)NCC(O)CN2C(=O)c3ccccc3C2=O)C(C)(C)N1 (stereo not shown) [I/61] | 1.9 mg/kg | 3 mg/kg | 28 mg/kg | 30 min | 100% | 
CC1(C)CC(C(=O)NCCCN2C(=O)c3ccccc3C2=O)C(C)(C)N1 (stereo not shown) [I/62] | 2.6 mg/kg | 4.5 mg/kg | 22 mg/kg | 30 min | 100% | 
CC1(C)C=C(C(=O)NCCCNC(=O)c2ccccc2C(=O)O)C(C)(C)N1 [I/68, N-(2,2,5,5-tetramethyl-3-pyrroline-3-carbonyl)-N'-(2-carboxybenzoyl)-1,3-diaminopropane] |  |  | 419 mg/kg |  |  | arrhythmia appearance time ([1]; 41.9 mg/kg i.v.): 4.6 ± 0.7 min; responders at 41.9 mg/kg ([1]; Rattus norvegicus, iv, 0.5 h, read-out: positive cases, 41.9 mg/kg i.v., 2 min before aconitine, no arrhythmia within 30 min = positive): 40%
Cc1nc2ccccc2c(=O)n1CCCNC(=O)C1=CC(C)(C)NC1(C)C [I/70, 2-Methyl-3-[3-(2,2,5,5-tetramethyl-3-pyrroline-3-carbonyl-amino)-propyl]-quinazoline-4(3H)-one] | 2.5 mg/kg | 4.5 mg/kg | 31 mg/kg | 30 min | 100% | 
CCc1nc2ccccc2c(=O)n1CCNC(=O)C1=CC(C)(C)NC1(C)C [I/71] | 3.8 mg/kg | 10.5 mg/kg | 48 mg/kg | 30 min | 100% | 
CCc1nc2ccccc2c(=O)n1CCCNC(=O)C1=CC(C)(C)NC1(C)C [I/72] | 1.1 mg/kg | 1.7 mg/kg | 13 mg/kg | 30 min | 100% | 
CCc1nc2ccccc2c(=O)n1CCCNC(=O)C1CC(C)(C)NC1(C)C (stereo not shown) [I/74] | 1.9 mg/kg | 2.7 mg/kg | 22 mg/kg | 30 min | 100% | 
